Counter-ions that a name gives are not always drawn.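 Values below derive from 48-hour exposures of cells grown in 96-well plates, with endpoints linearly interpolated between the two concentrations bracketing the appropriate inhibition level. TGI denotes the concentration required for complete inhibition of growth.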 Where a SMILES comes first, the peptide text is derived from it. The star is where a group is joined. Tfa = O=C(C(F)(F)F)*
How the values were obtained:
Test in all cases: inhibition of tumour cell growth, NCI panel, 48 h
[1] = system: SK-MEL-5 melanoma
[2] = system: NCI-H522 lung
[3] = system: MDA-MB-231 breast
[4] = system: MOLT-4 leukemia
[5] = system: U251 CNS
[6] = system: SN12C renal
[7] = system: SF-268 CNS
[8] = system: SK-OV-3 ovarian
[9] = system: 786-0 renal
[10] = system: SK-MEL-2 melanoma
[11] = system: NCI-H226 lung
[12] = system: SK-MEL-28 melanoma
[13] = system: OVCAR-8 ovarian
[14] = system: MDA-MB-435
[15] = system: MDA-N
[16] = system: IGROV1 ovarian
[17] = system: NCI-H23 lung
[18] = system: SNB-19 CNS
[19] = system: RXF 393 renal
[20] = system: K-562 leukemia

For `CC(=O)ON(C(C)=O)c1ccc(-c2nc3ccccc3s2)cc1`, the TGI [1] was 89.9 µM, the TGI [2] was 30.7 µM and the TGI [3] was > 91.5 µM. The TGI [4] was 49.3 µM, the TGI [5] was > 60.9 µM and the TGI [6] was > 100 µM. The TGI [7] was > 100 µM, the TGI [8] was > 100 µM and the TGI [9] was > 57.5 µM. The TGI [10] was 67.1 µM, the TGI [11] was 27.7 µM and the TGI [12] was > 70.8 µM. The TGI [13] was > 58 µM, the TGI [14] was > 60.3 µM and the TGI [15] was > 77 µM. The TGI [16] was 36.9 µM, the TGI [17] was > 90.8 µM and the TGI [18] was > 100 µM. For the same molecule, the TGI [19] was > 79.3 µM and the TGI [20] was > 100 µM.

In the case of `CN(C)c1ccc(/C=c2/c3ccccc3n3c2c2ccccc2[n+]3C)cc1`, the TGI [1] is reported as 0.659 µM, the TGI [2] is reported as 0.619 µM and the TGI [3] is reported as 2.42 µM. It also gave a TGI [4] of 2.67 µM, a TGI [5] of 1.46 µM and a TGI [6] of 2.55 µM. For the same molecule, the TGI [7] was 1.98 µM, the TGI [8] was 14 µM and the TGI [9] was 1.69 µM. It also gave a TGI [10] of 0.782 µM, a TGI [11] of 15.3 µM and a TGI [12] of 2.08 µM. The TGI [13] was 2.34 µM, the TGI [14] was 1.87 µM and the TGI [15] was 1.89 µM. For the same molecule, the TGI [16] was 2.27 µM, the TGI [17] was 3.45 µM and the TGI [18] was 4.76 µM. It also gave a TGI [19] of 4.47 µM and a TGI [20] of 4.71 µM.

With `O=C1c2c(Cl)c(Cl)c(Cl)c(Cl)c2C(=O)N1CCN(c1c(Cl)ssc1=O)c1c(Cl)ssc1=O` the TGI [1] was > 100 µM, the TGI [2] was 57.8 µM and the TGI [3] was > 100 µM. For the same molecule, the TGI [4] was 37.7 µM, the TGI [5] was > 100 µM and the TGI [6] was 47.7 µM. For the same molecule, the TGI [7] was > 100 µM, the TGI [8] was > 100 µM and the TGI [9] was 32.8 µM. For the same molecule, the TGI [10] was 54.3 µM, the TGI [11] was > 100 µM and the TGI [12] was > 100 µM. It also gave a TGI [13] of 44.6 µM, a TGI [14] of 45.4 µM and a TGI [15] of 33.3 µM. The TGI [16] was > 100 µM, the TGI [17] was > 100 µM and the TGI [18] was > 100 µM. The TGI [19] was 34.4 µM and the TGI [20] was 53.4 µM.

`O=c1sc2c(s1)SSSSS2` was tested, and the TGI [1] was > 50 µM, the TGI [2] was > 50 µM and the TGI [3] was > 50 µM. The TGI [4] was 42.3 µM, the TGI [5] was > 50 µM and the TGI [6] was > 50 µM. The TGI [7] was > 50 µM, the TGI [8] was > 50 µM and the TGI [9] was > 50 µM. The TGI [10] was > 50 µM, the TGI [11] was > 50 µM and the TGI [12] was > 50 µM. The TGI [13] was > 50 µM, the TGI [14] was > 50 µM and the TGI [15] was > 50 µM. For the same molecule, the TGI [16] was > 50 µM, the TGI [17] was > 50 µM and the TGI [18] was > 50 µM. For the same molecule, the TGI [19] was > 50 µM and the TGI [20] was > 50 µM.

With `NCCSc1nc2ccccc2s1` the TGI [1] was > 100 µM, the TGI [2] was 75.7 µM and the TGI [3] was > 100 µM. For the same molecule, the TGI [4] was 94.8 µM, the TGI [5] was 48.3 µM and the TGI [6] was > 100 µM. For the same molecule, the TGI [7] was 86 µM, the TGI [8] was 79.7 µM and the TGI [9] was 71.5 µM. For the same molecule, the TGI [10] was 82.2 µM, the TGI [11] was 92.9 µM and the TGI [12] was > 100 µM. For the same molecule, the TGI [13] was > 100 µM, the TGI [14] was 69 µM and the TGI [15] was > 100 µM. The TGI [16] was > 100 µM, the TGI [17] was > 100 µM and the TGI [18] was > 100 µM. The TGI [19] was 77.9 µM and the TGI [20] was > 100 µM.

With `Brc1ccc2[nH]cc(-c3csc(-c4ccccn4)n3)c2c1` the TGI [1] was 55.9 µM, the TGI [2] was > 100 µM and the TGI [3] was > 75.4 µM. The TGI [4] was > 53.6 µM, the TGI [5] was 36.4 µM and the TGI [6] was 30.7 µM. For the same molecule, the TGI [7] was > 59.7 µM, the TGI [8] was > 100 µM and the TGI [9] was 20.3 µM. For the same molecule, the TGI [10] was > 100 µM, the TGI [11] was 34.8 µM and the TGI [12] was > 100 µM. The TGI [13] was > 100 µM, the TGI [14] was > 100 µM and the TGI [15] was > 100 µM. For the same molecule, the TGI [16] was > 88.8 µM, the TGI [17] was > 100 µM and the TGI [18] was > 100 µM. The TGI [19] was 18.7 µM and the TGI [20] was > 100 µM.

`Nc1cc2c3c(c1)Oc1cc(N)cc4c1C3c1c(cc(N)cc1O4)O2` was tested, and the TGI [1] was 27.3 µM, the TGI [2] was 45.5 µM and the TGI [3] was 53.8 µM. For the same molecule, the TGI [4] was > 100 µM, the TGI [5] was > 100 µM and the TGI [6] was 49.2 µM. For the same molecule, the TGI [7] was 25 µM, the TGI [8] was > 100 µM and the TGI [9] was > 86.5 µM. For the same molecule, the TGI [10] was > 81.9 µM, the TGI [11] was 12.8 µM and the TGI [12] was > 100 µM. The TGI [13] was 34 µM, the TGI [14] was > 86.9 µM and the TGI [15] was 59.5 µM. The TGI [16] was > 44.9 µM, the TGI [17] was > 66.5 µM and the TGI [18] was > 100 µM. The TGI [19] was 29 µM and the TGI [20] was > 100 µM.

With `COc1cc(C=O)ccc1Oc1nnnn1-c1ccccc1` the TGI [1] was 59.2 µM, the TGI [2] was > 100 µM and the TGI [3] was > 100 µM. The TGI [4] was 75.1 µM, the TGI [5] was > 100 µM and the TGI [6] was > 100 µM. The TGI [7] was > 100 µM, the TGI [8] was > 100 µM and the TGI [9] was > 100 µM. For the same molecule, the TGI [10] was > 100 µM, the TGI [11] was 56.7 µM and the TGI [12] was > 100 µM. The TGI [13] was > 100 µM, the TGI [14] was > 100 µM and the TGI [15] was > 100 µM. The TGI [16] was > 100 µM, the TGI [17] was > 100 µM and the TGI [18] was > 100 µM. For the same molecule, the TGI [19] was > 100 µM and the TGI [20] was > 100 µM.

For `N#Cc1c(N2CCCC2)nsc1NCc1ccccc1`, the TGI [1] was > 100 µM, the TGI [2] was > 100 µM and the TGI [3] was > 100 µM. For the same molecule, the TGI [4] was > 100 µM, the TGI [5] was > 100 µM and the TGI [6] was > 100 µM. The TGI [7] was > 100 µM, the TGI [8] was > 100 µM and the TGI [9] was > 100 µM. For the same molecule, the TGI [10] was > 100 µM, the TGI [11] was > 100 µM and the TGI [12] was > 100 µM. The TGI [13] was > 100 µM, the TGI [14] was > 100 µM and the TGI [15] was > 100 µM. The TGI [16] was > 100 µM, the TGI [17] was > 100 µM and the TGI [18] was > 100 µM. The TGI [19] was > 100 µM and the TGI [20] was > 100 µM.

In the case of `CC(C)(C)OC(=O)NCCCCC(N)C(N)=O` (stereo not given), the TGI [1] is reported as > 100 µM, the TGI [2] is reported as > 100 µM and the TGI [3] is reported as > 100 µM. For the same molecule, the TGI [4] was > 100 µM, the TGI [5] was > 100 µM and the TGI [6] was > 100 µM. The TGI [7] was > 100 µM, the TGI [8] was > 100 µM and the TGI [9] was > 100 µM. The TGI [10] was > 100 µM, the TGI [11] was > 100 µM and the TGI [12] was > 100 µM. The TGI [13] was > 100 µM, the TGI [14] was > 100 µM and the TGI [15] was > 100 µM. The TGI [16] was > 100 µM, the TGI [17] was > 100 µM and the TGI [18] was > 100 µM. For the same molecule, the TGI [19] was > 100 µM and the TGI [20] was > 100 µM.

With `O=C(O)CC(NC(=O)C(F)(F)F)C(=O)NC(Cc1ccc(O)cc1)C(=O)O` (stereo not drawn) (Tfa-Asp-Tyr-OH; configuration not given here) the TGI [1] was > 50 µM, the TGI [2] was > 50 µM and the TGI [3] was > 50 µM. The TGI [4] was > 50 µM, the TGI [5] was > 50 µM and the TGI [6] was > 50 µM. The TGI [7] was > 50 µM, the TGI [8] was > 50 µM and the TGI [9] was > 50 µM. The TGI [10] was > 50 µM, the TGI [11] was > 50 µM and the TGI [12] was > 50 µM. For the same molecule, the TGI [13] was > 50 µM, the TGI [14] was > 50 µM and the TGI [15] was > 50 µM. For the same molecule, the TGI [16] was > 50 µM, the TGI [17] was > 50 µM and the TGI [18] was > 50 µM. For the same molecule, the TGI [19] was > 50 µM and the TGI [20] was > 50 µM.

In the case of `CCC1=NC(N/N=C/c2ccco2)=N/C1=C\c1ccccc1O`, the TGI [1] is reported as > 100 µM, the TGI [2] is reported as 49.3 µM and the TGI [3] is reported as > 100 µM. For the same molecule, the TGI [4] was > 100 µM, the TGI [5] was > 100 µM and the TGI [6] was > 100 µM. For the same molecule, the TGI [7] was > 100 µM, the TGI [8] was > 100 µM and the TGI [9] was > 100 µM. For the same molecule, the TGI [10] was 89.4 µM, the TGI [11] was > 100 µM and the TGI [12] was > 100 µM. The TGI [13] was > 100 µM, the TGI [14] was > 100 µM and the TGI [15] was > 100 µM. The TGI [16] was 93.1 µM, the TGI [17] was > 100 µM and the TGI [18] was > 100 µM. The TGI [19] was > 100 µM and the TGI [20] was > 100 µM.
